Holding throughout (format): functional
What all share (design): concentration or dose not given beside the values

The subject of one test is Plasmodium berghei. Kind of test: MMV: P. berghei-infected blood was withdrawn from mice by cardiac pucture before being immediately added to ookinete culture medium containing test compounds. 26 hr later, GFP-positive ookinetes were identified and counted by automated microscopy. All compounds were tested in 4 independent experiments and data presented here is the mean.

The test system of test [1] is Plasmodium falciparum. Put plainly: MMV: P. falciparum NF54 functionally mature Stage V gametocytes were incubated for 24 hr in the presence of the test compounds. Gamete formation was then triggered by addition of 2uM xantheurenic acid and temperature decrease to ~20C. Male gamete exflagellation was recorded and analysed by automated microscopy after 20 min. All compounds were tested in 4 independent experiments and data presented here is the mean.

In test [2] the test system is Plasmodium falciparum. Kind of test: MMV: P. falciparum NF54 functionally mature Stage V gametocytes were incubated for 24 hr in the presence of the test compounds. Gamete formation was then triggered by addition of 2uM xantheurenic acid and temperature decrease to ~20C. Female gamete formation was recorded 24 hr later by automated microscopy detection of surface labelling of female gametes with a Cy3-conjugated antibody reactive to Pfs25. All compounds were tested in 4 independent experiments and data presented here is the mean. Conditions: NF54, 24 h.

SMILES strings stand for the structures.

On to `CC(C)(C)CC(C)(C)NCC(O)COc1ccc(Cl)cc1Cl` (stereo not drawn), for which the inhibition in the test on Plasmodium berghei is -15.58%; in the test on Plasmodium falciparum [1], -10.7%; in the test on Plasmodium falciparum [2] it was -45.2%.
For `O=C(Nc1ccc(Br)cc1)Nc1cccc(Cl)c1`, in that order: -16.14%, 24.2% and -16.5%.
For `Cc1ccc(N2C(=O)C3C(C2=O)C2(c4ccccc4)C(=O)C3(c3ccccc3)C(c3ccccc3)=C2c2ccccc2)cc1` (stereo not drawn), in that order: -15.1%, 21.2% and -19.9%.
As to `CCC(c1ccccc1)c1nn2c(-c3cccs3)nnc2s1` (stereo not drawn), the figures for the inhibition with Plasmodium berghei, in the test with Plasmodium falciparum [1] and in the test on Plasmodium falciparum [2] were -15.76%, 1.43% and -48.4%, respectively.
Turning to `CC(C)=CCN1CCC(C(=O)Nc2ccc(-c3nc4ccccc4[nH]3)cc2)CC1`, the inhibition in the test with Plasmodium berghei was -16.54%; in the test with Plasmodium falciparum [1], -15.4%; with Plasmodium falciparum [2], -19.7%.
For `O=C(Nc1ccc(CN2CCOCC2)cc1)c1ccc(-c2cc(Cl)ccc2Cl)o1`, in that order: -15.91%, 2.57% and -21.4%.
In the case of `COc1ccc(NC(=O)C2c3ccccc3C(=O)N(CC(C)C)C2c2cccs2)cc1Cl` (stereo not drawn), the inhibition with Plasmodium berghei is -15.31%; in the test with Plasmodium falciparum [1], 8.99%; with Plasmodium falciparum [2], -2.16%.
For `O=C(Nc1cccc(-c2nc3ccccc3[nH]2)c1)c1cccc(NC(=O)c2ccco2)c1`, in that order: -15.24%, 31.6% and -35.1%.
For `COc1cc(OC)c(N(C)C(=O)c2cc3c(s2)-c2ccccc2S(=O)(=O)C3)cc1Cl` the same measures were -16.25%, 7.68% and -14.9%.
For `COc1cc(C(=O)ON=C(N)Cc2cccc3ccccc23)cc(OC)c1OC`, in that order: -15.26%, -12.8% and -26.8%.
With `Cc1ccccc1OCCSc1nc2ccc(NC(=O)c3ccccc3)cc2s1`, the inhibition with Plasmodium berghei is -15.11%; in the test on Plasmodium falciparum [1], 5.46%; in the test on Plasmodium falciparum [2] it was -13.8%.
For `COc1ccc(-c2nonc2NC(=O)c2cccc(Cl)c2)cc1OC` the same measures were -15.75%, 18.1% and 12%.
Regarding `Cc1cc(NC(=O)C2c3ccccc3C(=O)N(CC(C)C)C2c2cccs2)no1` (stereo not drawn), the inhibition in the test with Plasmodium berghei was -16.54%; in the test on Plasmodium falciparum [1], 52.5%; with Plasmodium falciparum [2], 40.3%.
For `Cc1ccc(-c2nc3ccccc3o2)cc1NCc1cc(Cc2ccccc2)ccc1O` the same measures were -14.9%, 13.9% and -8.19%.
With `CCOc1cc2c(cc1OCC)C(c1cc(C)c(O)c(C)c1)NCC2.Cl` (stereo not drawn), the inhibition in the test on Plasmodium berghei is -16.67%; in the test on Plasmodium falciparum [1] it was -7.71%; in the test on Plasmodium falciparum [2], 20.2%.
For `Cc1ccc(NC(=O)Nc2cccc(Cl)c2)cc1F`, in that order: -16.5%, 2.14% and -4.87%.
For `Clc1ccc2[nH]c3c(NCCCN4CCOCC4)ncnc3c2c1` the same measures were -16.54%, 21.6% and -15.9%.
For `CCOc1ccc2nc(C)cc(Nc3ccc(Br)cc3)c2c1` the same measures were -16.41%, -29.1% and -27.4%.
As to `CCOC(=O)C1CCN(C(=O)CN2C(=O)c3ccccc3C2c2c[nH]c3ccccc23)CC1` (stereo not drawn), the inhibition with Plasmodium berghei was -16.49%; with Plasmodium falciparum [1] it was 32.6%; in the test on Plasmodium falciparum [2] it was -26%.
Turning to `CCc1ccc(Nc2cc(C)nc3nc(C)nn23)cc1`, the inhibition in the test with Plasmodium berghei was -14.94%; in the test on Plasmodium falciparum [1] it was 20.5%; with Plasmodium falciparum [2], -17.7%.
For `CN1CCN(c2nc(Nc3ccc(O)cc3)nc3ccccc23)CC1.Cl` the same measures were -15.95%, 2% and -25.1%.

(Values after ChEMBL document CHEMBL3301451, “MMV Malaria Box gametocyte functional viability assay screening”.)
